Data published in publication PMC8401933 (Molecules, 2021).

Experiments:
CSNK2A1 = molecular target: T1, CSNK2A1 (Homo sapiens, UniProt P68400); assay: KINOMEscan binding
T1 construct: purchased Eurofins DiscoverX KINOMEscan

AURKC = molecular target: T2, AURKC (Homo sapiens, UniProt Q9UQB9); assay: KINOMEscan binding; conditions: read-out: Percent Control
T2 construct: purchased Eurofins DiscoverX KINOMEscan

TTK = molecular target: T3, TTK (Homo sapiens, UniProt P33981); assay: KINOMEscan binding; conditions: read-out: Percent Control
T3 construct: purchased Eurofins DiscoverX KINOMEscan

TGFBR1 = molecular target: T4, TGFBR1 (Homo sapiens, UniProt P36897); assay: KINOMEscan binding; conditions: read-out: Percent Control
T4 construct: purchased Eurofins DiscoverX KINOMEscan

AURKB = molecular target: T5, AURKB (Homo sapiens, UniProt Q96GD4); assay: KINOMEscan binding; conditions: read-out: Percent Control
T5 construct: purchased Eurofins DiscoverX KINOMEscan

ERK3 = molecular target: T6, ERK3 (Homo sapiens, UniProt Q16659); assay: KINOMEscan binding; conditions: read-out: Percent Control
T6 construct: purchased Eurofins DiscoverX KINOMEscan

STK33 = molecular target: T7, STK33 (Homo sapiens, UniProt Q9BYT3); assay: KINOMEscan binding; conditions: read-out: Percent Control
T7 construct: purchased Eurofins DiscoverX KINOMEscan

MST1R = molecular target: T8, MST1R (Homo sapiens, UniProt Q04912); assay: KINOMEscan binding; conditions: read-out: Percent Control
T8 construct: purchased Eurofins DiscoverX KINOMEscan

PIP5K2C = molecular target: T9, PIP5K2C (Homo sapiens, UniProt Q8TBX8); assay: KINOMEscan binding; conditions: read-out: Percent Control
T9 construct: purchased Eurofins DiscoverX KINOMEscan

LIMK2 = molecular target: T10, LIMK2 (Homo sapiens, UniProt P53671); assay: KINOMEscan binding; conditions: read-out: Percent Control
T10 construct: purchased Eurofins DiscoverX KINOMEscan

EPHA3 = molecular target: T11, EPHA3 (Homo sapiens, UniProt P29320); assay: KINOMEscan binding; conditions: read-out: Percent Control
T11 construct: purchased Eurofins DiscoverX KINOMEscan

BMPR1B = molecular target: T12, BMPR1B (Homo sapiens, UniProt O00238); assay: KINOMEscan binding; conditions: read-out: Percent Control
T12 construct: purchased Eurofins DiscoverX KINOMEscan

EIF2AK1 = molecular target: T13, EIF2AK1 (Homo sapiens, UniProt Q9BQI3); assay: KINOMEscan binding; conditions: read-out: Percent Control
T13 construct: purchased Eurofins DiscoverX KINOMEscan

ZAK = molecular target: T14, ZAK (Homo sapiens, UniProt Q9NYL2); assay: KINOMEscan binding; conditions: read-out: Percent Control
T14 construct: purchased Eurofins DiscoverX KINOMEscan

ERK2 = molecular target: T15, ERK2 (Homo sapiens, UniProt P28482); assay: KINOMEscan binding; conditions: read-out: Percent Control
T15 construct: purchased Eurofins DiscoverX KINOMEscan

GRK7 = molecular target: T16, GRK7 (Homo sapiens, UniProt Q8WTQ7); assay: KINOMEscan binding; conditions: read-out: Percent Control
T16 construct: purchased Eurofins DiscoverX KINOMEscan

MAP4K2 = molecular target: T17, MAP4K2 (Homo sapiens, UniProt Q12851); assay: KINOMEscan binding; conditions: read-out: Percent Control
T17 construct: purchased Eurofins DiscoverX KINOMEscan

NEK6 = molecular target: T18, NEK6 (Homo sapiens, UniProt Q9HC98); assay: KINOMEscan binding; conditions: read-out: Percent Control
T18 construct: purchased Eurofins DiscoverX KINOMEscan

ERBB2 = molecular target: T19, ERBB2 (Homo sapiens, UniProt P04626); assay: KINOMEscan binding; conditions: read-out: Percent Control
T19 construct: purchased Eurofins DiscoverX KINOMEscan

WNK3 = molecular target: T20, WNK3 (Homo sapiens, UniProt Q9BYP7); assay: KINOMEscan binding; conditions: read-out: Percent Control
T20 construct: purchased Eurofins DiscoverX KINOMEscan

CTK = molecular target: T21, CTK (Homo sapiens, UniProt P42679); assay: KINOMEscan binding; conditions: read-out: Percent Control
T21 construct: purchased Eurofins DiscoverX KINOMEscan

FGFR2 = molecular target: T22, FGFR2 (Homo sapiens, UniProt P21802); assay: KINOMEscan binding; conditions: read-out: Percent Control
T22 construct: purchased Eurofins DiscoverX KINOMEscan
T22 sequence (P21802 22-821): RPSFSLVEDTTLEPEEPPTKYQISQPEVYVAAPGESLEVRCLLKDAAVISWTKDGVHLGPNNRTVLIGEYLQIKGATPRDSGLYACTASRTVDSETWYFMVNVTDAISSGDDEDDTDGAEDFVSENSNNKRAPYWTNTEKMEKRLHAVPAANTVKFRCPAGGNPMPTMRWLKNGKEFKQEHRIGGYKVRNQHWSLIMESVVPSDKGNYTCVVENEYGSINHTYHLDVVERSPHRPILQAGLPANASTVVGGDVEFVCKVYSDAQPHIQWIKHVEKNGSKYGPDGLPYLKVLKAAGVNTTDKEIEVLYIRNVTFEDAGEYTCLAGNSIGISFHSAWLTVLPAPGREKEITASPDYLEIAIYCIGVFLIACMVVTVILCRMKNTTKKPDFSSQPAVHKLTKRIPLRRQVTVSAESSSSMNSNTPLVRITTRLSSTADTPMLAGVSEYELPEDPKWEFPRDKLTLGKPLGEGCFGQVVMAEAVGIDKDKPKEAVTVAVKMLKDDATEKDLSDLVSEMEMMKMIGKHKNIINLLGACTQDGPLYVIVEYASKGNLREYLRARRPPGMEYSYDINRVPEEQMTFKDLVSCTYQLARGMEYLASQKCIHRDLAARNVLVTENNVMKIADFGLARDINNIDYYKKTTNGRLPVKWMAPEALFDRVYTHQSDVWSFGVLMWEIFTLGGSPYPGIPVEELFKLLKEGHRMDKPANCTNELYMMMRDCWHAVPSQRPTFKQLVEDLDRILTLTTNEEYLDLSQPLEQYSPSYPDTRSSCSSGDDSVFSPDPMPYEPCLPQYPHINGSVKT

PKN2 = molecular target: T23, PKN2 (Homo sapiens, UniProt Q16513); assay: KINOMEscan binding; conditions: read-out: Percent Control
T23 construct: purchased Eurofins DiscoverX KINOMEscan
T23 sequence (Q16513 whole entry): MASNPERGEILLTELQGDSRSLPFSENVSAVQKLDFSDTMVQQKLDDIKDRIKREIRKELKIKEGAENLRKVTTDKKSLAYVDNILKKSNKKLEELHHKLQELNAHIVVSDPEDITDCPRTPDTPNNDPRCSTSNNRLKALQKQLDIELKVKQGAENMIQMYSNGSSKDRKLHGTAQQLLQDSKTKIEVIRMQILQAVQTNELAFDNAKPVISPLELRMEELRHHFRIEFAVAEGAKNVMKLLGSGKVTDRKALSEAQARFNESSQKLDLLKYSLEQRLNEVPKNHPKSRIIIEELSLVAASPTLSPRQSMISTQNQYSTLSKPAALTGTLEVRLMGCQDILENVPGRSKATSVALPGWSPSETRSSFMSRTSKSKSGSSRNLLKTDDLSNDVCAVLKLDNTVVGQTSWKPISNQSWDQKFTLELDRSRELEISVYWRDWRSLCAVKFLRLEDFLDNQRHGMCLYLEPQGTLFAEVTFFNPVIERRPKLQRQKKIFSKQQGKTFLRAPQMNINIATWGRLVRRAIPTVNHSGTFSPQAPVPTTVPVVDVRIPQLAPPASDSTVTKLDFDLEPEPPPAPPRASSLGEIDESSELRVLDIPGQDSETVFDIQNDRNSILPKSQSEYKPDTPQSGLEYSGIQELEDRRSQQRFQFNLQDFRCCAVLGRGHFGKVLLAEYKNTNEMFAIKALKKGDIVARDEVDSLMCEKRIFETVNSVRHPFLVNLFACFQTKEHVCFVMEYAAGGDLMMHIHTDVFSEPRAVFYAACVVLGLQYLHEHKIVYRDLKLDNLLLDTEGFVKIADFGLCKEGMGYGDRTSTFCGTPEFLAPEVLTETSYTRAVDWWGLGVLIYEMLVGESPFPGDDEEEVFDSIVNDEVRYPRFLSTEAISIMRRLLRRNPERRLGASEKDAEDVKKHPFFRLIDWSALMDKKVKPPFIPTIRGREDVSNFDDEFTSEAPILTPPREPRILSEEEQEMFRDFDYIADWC

DAPK1 = molecular target: T24, DAPK1 (Homo sapiens, UniProt P53355); assay: KINOMEscan binding; conditions: read-out: Percent Control
T24 construct: purchased Eurofins DiscoverX KINOMEscan
T24 sequence (P53355 whole entry): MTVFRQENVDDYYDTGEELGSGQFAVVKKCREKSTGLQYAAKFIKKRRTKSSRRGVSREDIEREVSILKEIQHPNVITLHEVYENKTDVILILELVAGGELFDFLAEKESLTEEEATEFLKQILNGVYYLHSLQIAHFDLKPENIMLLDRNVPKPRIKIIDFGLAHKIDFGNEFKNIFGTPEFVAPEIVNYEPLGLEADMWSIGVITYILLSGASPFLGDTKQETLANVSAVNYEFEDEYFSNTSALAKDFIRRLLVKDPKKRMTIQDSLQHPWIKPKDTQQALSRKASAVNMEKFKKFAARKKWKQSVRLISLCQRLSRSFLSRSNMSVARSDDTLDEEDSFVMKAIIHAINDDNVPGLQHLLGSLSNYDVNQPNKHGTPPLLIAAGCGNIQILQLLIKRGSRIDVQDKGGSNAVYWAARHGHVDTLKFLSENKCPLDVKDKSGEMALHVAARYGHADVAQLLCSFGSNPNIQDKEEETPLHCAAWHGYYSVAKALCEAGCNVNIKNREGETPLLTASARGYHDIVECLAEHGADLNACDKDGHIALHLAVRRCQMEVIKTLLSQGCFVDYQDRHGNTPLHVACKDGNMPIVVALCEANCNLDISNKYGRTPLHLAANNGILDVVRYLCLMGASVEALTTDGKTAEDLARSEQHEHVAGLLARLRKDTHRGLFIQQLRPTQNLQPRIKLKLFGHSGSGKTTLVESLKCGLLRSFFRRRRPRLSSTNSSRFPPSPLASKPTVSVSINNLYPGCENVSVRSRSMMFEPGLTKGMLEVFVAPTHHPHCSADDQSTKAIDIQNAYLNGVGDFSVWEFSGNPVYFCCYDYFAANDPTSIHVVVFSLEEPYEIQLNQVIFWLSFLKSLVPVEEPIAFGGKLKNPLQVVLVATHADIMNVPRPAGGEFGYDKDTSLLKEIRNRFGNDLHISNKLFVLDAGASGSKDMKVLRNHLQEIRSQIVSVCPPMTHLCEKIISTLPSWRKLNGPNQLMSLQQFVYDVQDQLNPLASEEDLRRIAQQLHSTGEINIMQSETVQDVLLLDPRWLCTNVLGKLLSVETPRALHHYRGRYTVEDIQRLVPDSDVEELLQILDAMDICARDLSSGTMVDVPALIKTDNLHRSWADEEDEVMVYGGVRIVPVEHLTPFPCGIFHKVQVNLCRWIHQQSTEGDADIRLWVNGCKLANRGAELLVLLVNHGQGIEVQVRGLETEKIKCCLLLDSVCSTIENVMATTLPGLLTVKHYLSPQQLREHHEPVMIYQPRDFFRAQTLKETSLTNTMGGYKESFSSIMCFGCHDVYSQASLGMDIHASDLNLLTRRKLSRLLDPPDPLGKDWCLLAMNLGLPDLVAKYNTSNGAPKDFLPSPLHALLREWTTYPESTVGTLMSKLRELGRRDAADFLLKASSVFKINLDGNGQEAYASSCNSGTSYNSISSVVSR

NEK4 = molecular target: T25, NEK4 (Homo sapiens, UniProt P51957); assay: KINOMEscan binding; conditions: read-out: Percent Control
T25 construct: purchased Eurofins DiscoverX KINOMEscan
T25 sequence (P51957 whole entry): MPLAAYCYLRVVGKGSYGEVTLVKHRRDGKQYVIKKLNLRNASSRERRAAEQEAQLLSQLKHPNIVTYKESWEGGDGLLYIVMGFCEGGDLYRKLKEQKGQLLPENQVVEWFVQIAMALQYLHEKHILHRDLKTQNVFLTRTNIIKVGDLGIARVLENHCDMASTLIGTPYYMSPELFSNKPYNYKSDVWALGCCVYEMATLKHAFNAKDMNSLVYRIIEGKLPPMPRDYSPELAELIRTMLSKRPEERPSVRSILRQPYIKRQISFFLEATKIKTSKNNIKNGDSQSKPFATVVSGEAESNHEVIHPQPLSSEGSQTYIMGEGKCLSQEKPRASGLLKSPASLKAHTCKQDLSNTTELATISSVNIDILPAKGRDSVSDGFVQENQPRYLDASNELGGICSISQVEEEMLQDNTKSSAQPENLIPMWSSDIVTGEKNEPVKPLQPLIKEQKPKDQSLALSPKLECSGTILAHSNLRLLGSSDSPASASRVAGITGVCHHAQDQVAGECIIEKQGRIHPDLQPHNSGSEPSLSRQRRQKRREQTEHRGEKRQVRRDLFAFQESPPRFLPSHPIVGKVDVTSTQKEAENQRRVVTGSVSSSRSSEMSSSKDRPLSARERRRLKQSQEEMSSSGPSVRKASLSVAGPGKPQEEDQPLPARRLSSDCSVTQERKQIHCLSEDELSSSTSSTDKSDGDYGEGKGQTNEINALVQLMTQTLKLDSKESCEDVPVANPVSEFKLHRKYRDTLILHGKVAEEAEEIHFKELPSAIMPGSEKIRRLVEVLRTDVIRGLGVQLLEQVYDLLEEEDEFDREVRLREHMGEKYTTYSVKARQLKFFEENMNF

AKT1 = molecular target: T26, AKT1 (Homo sapiens, UniProt P31749); assay: KINOMEscan binding; conditions: read-out: Percent Control
T26 construct: purchased Eurofins DiscoverX KINOMEscan

QSK = molecular target: T27, QSK (Homo sapiens, UniProt Q9Y2K2); assay: KINOMEscan binding; conditions: read-out: Percent Control
T27 construct: purchased Eurofins DiscoverX KINOMEscan

[1] = molecular target: T28, RSK3(Kin.Dom.2-C-terminal) (Homo sapiens, UniProt Q15349); assay: KINOMEscan binding; conditions: read-out: Percent Control
T28 construct: RSK3(Kin.Dom.2-C-terminal); purchased Eurofins DiscoverX KINOMEscan

AKT2 = molecular target: T29, AKT2 (Homo sapiens, UniProt P31751); assay: KINOMEscan binding; conditions: read-out: Percent Control
T29 construct: purchased Eurofins DiscoverX KINOMEscan
T29 sequence (P31751 whole entry): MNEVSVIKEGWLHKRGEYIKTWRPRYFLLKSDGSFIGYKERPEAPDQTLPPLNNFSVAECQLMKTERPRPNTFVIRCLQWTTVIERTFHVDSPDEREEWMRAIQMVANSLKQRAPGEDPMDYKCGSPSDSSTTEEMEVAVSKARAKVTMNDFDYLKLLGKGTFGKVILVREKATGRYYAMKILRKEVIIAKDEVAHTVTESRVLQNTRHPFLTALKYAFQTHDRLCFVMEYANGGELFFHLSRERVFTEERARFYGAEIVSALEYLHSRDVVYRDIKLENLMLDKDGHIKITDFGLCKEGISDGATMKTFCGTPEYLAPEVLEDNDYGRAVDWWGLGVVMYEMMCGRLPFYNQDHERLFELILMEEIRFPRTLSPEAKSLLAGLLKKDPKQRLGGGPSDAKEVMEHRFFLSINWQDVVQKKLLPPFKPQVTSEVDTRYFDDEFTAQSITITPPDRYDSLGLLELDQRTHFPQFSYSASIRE

PCTK1 = molecular target: T30, PCTK1 (Homo sapiens, UniProt Q00536); assay: KINOMEscan binding; conditions: read-out: Percent Control
T30 construct: purchased Eurofins DiscoverX KINOMEscan

CAMKK1 = molecular target: T31, CAMKK1 (Homo sapiens, UniProt Q8N5S9); assay: KINOMEscan binding; conditions: read-out: Percent Control
T31 construct: purchased Eurofins DiscoverX KINOMEscan

[2] = molecular target: T32, RPS6KA4(Kin.Dom.1-N-terminal) (Homo sapiens, UniProt O75676); assay: KINOMEscan binding; conditions: read-out: Percent Control
T32 construct: RPS6KA4(Kin.Dom.1-N-terminal); purchased Eurofins DiscoverX KINOMEscan

NEK10 = molecular target: T33, NEK10 (Homo sapiens, UniProt Q6ZWH5); assay: KINOMEscan binding; conditions: read-out: Percent Control
T33 construct: purchased Eurofins DiscoverX KINOMEscan

[3] = molecular target: T34, JAK1(JH1domain-catalytic) (Homo sapiens, UniProt P23458); assay: KINOMEscan binding; conditions: read-out: Percent Control
T34 construct: JAK1(JH1domain-catalytic); purchased Eurofins DiscoverX KINOMEscan

GSK3B = molecular target: T35, GSK3B (Homo sapiens, UniProt P49841); assay: KINOMEscan binding; conditions: read-out: Percent Control
T35 construct: purchased Eurofins DiscoverX KINOMEscan

HUNK = molecular target: T36, HUNK (Homo sapiens, UniProt P57058); assay: KINOMEscan binding; conditions: read-out: Percent Control
T36 construct: purchased Eurofins DiscoverX KINOMEscan

ICK = molecular target: T37, ICK (Homo sapiens, UniProt Q9UPZ9); assay: KINOMEscan binding; conditions: read-out: Percent Control
T37 construct: purchased Eurofins DiscoverX KINOMEscan

IRAK1 = molecular target: T38, IRAK1 (Homo sapiens, UniProt P51617); assay: KINOMEscan binding; conditions: read-out: Percent Control
T38 construct: purchased Eurofins DiscoverX KINOMEscan

MAST1 = molecular target: T39, MAST1 (Homo sapiens, UniProt Q9Y2H9); assay: KINOMEscan binding; conditions: read-out: Percent Control
T39 construct: purchased Eurofins DiscoverX KINOMEscan

MLK2 = molecular target: T40, MLK2 (Homo sapiens, UniProt Q02779); assay: KINOMEscan binding; conditions: read-out: Percent Control
T40 construct: purchased Eurofins DiscoverX KINOMEscan

SBK1 = molecular target: T41, SBK1 (Homo sapiens, UniProt Q52WX2); assay: KINOMEscan binding; conditions: read-out: Percent Control
T41 construct: purchased Eurofins DiscoverX KINOMEscan

TNIK = molecular target: T42, TNIK (Homo sapiens, UniProt Q9UKE5); assay: KINOMEscan binding; conditions: read-out: Percent Control
T42 construct: purchased Eurofins DiscoverX KINOMEscan

ROCK1 = tested on: ROCK1; parameters: method as in PMID 18832915; conditions: cited from earlier work

T1 sequence (P68400 whole entry): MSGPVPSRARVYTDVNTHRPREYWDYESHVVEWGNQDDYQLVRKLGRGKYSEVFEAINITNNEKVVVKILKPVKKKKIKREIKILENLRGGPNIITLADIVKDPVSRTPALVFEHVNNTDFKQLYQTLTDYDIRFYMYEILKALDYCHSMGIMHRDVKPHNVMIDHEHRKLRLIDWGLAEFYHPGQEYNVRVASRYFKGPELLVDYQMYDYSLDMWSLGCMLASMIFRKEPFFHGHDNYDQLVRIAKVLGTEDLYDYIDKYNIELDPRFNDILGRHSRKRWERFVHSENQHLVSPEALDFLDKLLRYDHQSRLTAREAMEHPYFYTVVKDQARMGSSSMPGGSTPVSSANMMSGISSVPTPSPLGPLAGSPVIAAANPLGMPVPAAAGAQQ

In the case of `CC(C)NC(=O)COc1cccc(-c2nc(Nc3ccc4[nH]ncc4c3)c3ccccc3n2)c1` [KD025, 2-(3-(4-((1H-indazol-5-yl)amino)quinazolin-2-yl)phenoxy)-N-isopropylacetamide], the “CK2α and CK2α’ inhibited less than ROCK2 (POC)” value (CSNK2A1; 10 μM) is reported as 10 fold, the remaining binding at 10 µM (CSNK2A1; CSNK2A1, read-out: Percent Control) is reported as 0.5% and the remaining binding at 10 µM (AURKC) is reported as 18%. For the same compound, the remaining binding at 10 µM (TTK) was 28%, the remaining binding at 10 µM (TGFBR1) was 59% and the remaining binding at 10 µM (AURKB) was 61%. It also gave a remaining binding at 10 µM (ERK3) of 64%, a remaining binding at 10 µM (STK33) of 67% and a remaining binding at 10 µM (MST1R) of 71%. For the same compound, the remaining binding at 10 µM (PIP5K2C) was 71%, the remaining binding at 10 µM (LIMK2) was 73% and the remaining binding at 10 µM (EPHA3) was 75%. For the same compound, the remaining binding at 10 µM (BMPR1B) was 76%, the remaining binding at 10 µM (EIF2AK1) was 77% and the remaining binding at 10 µM (ZAK) was 77%. It also gave a remaining binding at 10 µM (ERK2) of 79%, a remaining binding at 10 µM (GRK7) of 80% and a remaining binding at 10 µM (MAP4K2) of 80%. For the same compound, the remaining binding at 10 µM (NEK6) was 80%, the remaining binding at 10 µM (ERBB2) was 81% and the remaining binding at 10 µM (WNK3) was 82%. It also gave a remaining binding at 10 µM (CTK) of 83%, a remaining binding at 10 µM (FGFR2) of 84% and a remaining binding at 10 µM (PKN2) of 84%. The remaining binding at 10 µM (DAPK1) was 85%, the remaining binding at 10 µM (NEK4) was 87% and the remaining binding at 10 µM (AKT1) was 88%. For the same compound, the remaining binding at 10 µM (QSK) was 88%, the remaining binding at 10 µM [1] was 89% and the remaining binding at 10 µM (AKT2) was 90%. It also gave a remaining binding at 10 µM (PCTK1) of 91%, a remaining binding at 10 µM (CAMKK1) of 94% and a remaining binding at 10 µM [2] of 94%. The remaining binding at 10 µM (NEK10) was 96%, the remaining binding at 10 µM [3] was 99% and the remaining binding at 10 µM (GSK3B) was 100%. For the same compound, the remaining binding at 10 µM (HUNK) was 100%, the remaining binding at 10 µM (ICK) was 100% and the remaining binding at 10 µM (IRAK1) was 100%. For the same compound, the remaining binding at 10 µM (MAST1) was 100%, the remaining binding at 10 µM (MLK2) was 100% and the remaining binding at 10 µM (SBK1) was 100%. The remaining binding at 10 µM (TNIK) was 100% and the IC50 (ROCK1) was 24 µM.
